Assay results published in article PMC7230731 (Marine Drugs, 2020).

Columns and labels:
MCF-7 cells = test: SRB antiproliferative assay, MCF-7; assay type: cell-based, human; conditions: for IC50: MCF-7 breast cancer cells, SRB assay, 48 h, mean ± S.D. of three experiments; for potency relative to Staurosporine, MCF-7: ratio of IC50 values, MCF-7 cells
Method: (§1) 1. Anti-proliferative action toward human breast cell lines […]
(§2) and non-tumorigenic human breast epithelial cell line (MCF-10A) have been obtained from American Type Culture Collection (ATCC). The cells were maintained in Dulbecco's modified Eagle's medium (DMEM) supplemented with 10% heat inactivated fetal calf serum (GIBCO), penicillin (100 U/ml) and streptomycin (100 µg/ml) at 37 °C in humidified atmosphere containing 5% CO2. […]
(§3) grown in a 25 cm2 flask in 5 ml of culture medium.
(§4) The anti-proliferative activity of the tested compounds was measured in vitro using the Sulfo-Rhodamine-B stain (SRB) assay. Briefly, Cells were inoculated in 96-well microtiter plate (5X104 cells/ well) for 24 h before treatment with the tested compounds to allow attachment of cell to the wall of the plate. Tested compounds were dissolved in DMSO at 1 mg/ml immediately before use and diluted to the appropriate volume just before addition to the cell culture. Different concentrations of tested compounds, doxorubicin and sorafenib were added to the cells (three wells were prepared for each […]
(§5) atmosphere of 5% CO2. After 48 h cells were fixed, washed, and stained for 30 min with 0.4% (w/v) SRB dissolved in 1% acetic acid. Unbound dye was removed by four washes with 1% acetic acid, and attached stain was recovered with Tris-EDTA buffer. Color intensity was measured in an ELISA reader. The relation between percent of surviving fraction and drug concentration is plotted to get the survival curve for each cell line. […]

MDA-MB-231 cells = test: SRB antiproliferative assay, MDA-MB-231; assay type: cell-based, human; conditions: for IC50: MDA-MB-231 triple-negative breast cancer cells, SRB assay, 48 h, mean ± S.D. of three experiments; for potency relative to Staurosporine, MDA-MB-231 / potency relative to non-brominated counterpart (9g vs 9d, 9h vs 9e), MDA-MB-231: ratio of IC50 values, MDA-MB-231 cells
Method: as §1, §2, §3, §4, §5

MCF-10A cells = test: SRB cytotoxicity assay, non-tumorigenic MCF-10A; assay type: cell-based, human; conditions: for Selectivity Index MCF-10A/MCF-7: IC50 MCF-10A / IC50 MCF-7; for IC50: non-tumorigenic human breast epithelial MCF-10A cells, SRB assay
From the text: The two examined human breast cancer cell lines (MCF-7 and Breast MDA-MB-231), and non-tumorigenic human breast epithelial cell line (MCF-10A) have been obtained from the American Type Culture Collection (ATCC). Assessment of cytotoxicity for target indole derivatives has been performed following the SRB colorimetric assay procedures, as reported earlier.
1. Anti-proliferative action toward human breast cell lines
The two examined human breast cancer cell lines (MCF-7 and Breast MDA-MB-231), and non-tumorigenic human breast epithelial cell line (MCF-10A) have been obtained from American Type Culture Collection (ATCC). The cells were maintained in Dulbecco's modified Eagle's medium (DMEM) supplemented with 10% heat inactivated fetal calf serum (GIBCO), penicillin (100 U/ml) and streptomycin (100 µg/ml) at 37 °C in humidified atmosphere containing 5% CO2. Cells at a concentration of 0.50 x 106 were grown in a 25 cm2 flask in 5 ml of culture medium.
The anti-proliferative activity of the tested compounds was measured in vitro using the Sulfo-Rhodamine-B stain (SRB) assay. Briefly, Cells were inoculated in 96-well microtiter plate (5X104 cells/ well) for 24 h before treatment with the tested compounds to allow attachment of cell to the wall of the plate. Tested compounds were dissolved in DMSO at 1 mg/ml immediately before use and diluted to the appropriate volume just before addition to the cell culture. Different concentrations of tested compounds, doxorubicin and sorafenib were added to the cells (three wells were prepared for each individual dose). Cells were incubated with the compounds for 48 h at 37°C and in atmosphere of 5% CO2. After 48 h cells were fixed, washed, and stained for 30 min with 0.4% (w/v) SRB dissolved in 1% acetic acid. Unbound dye was removed by four washes with 1% acetic acid, and attached stain was recovered with Tris-EDTA buffer. Color intensity was measured in an ELISA reader. The relation between percent of surviving fraction and drug concentration is plotted to get the survival curve for each cell line. […]

CDK2 = target: T1, CDK2 (Homo sapiens, UniProt P24941); test: CDK2 kinase inhibition (Reaction Biology HotSpot); assay type: biochemical; conditions: single dose of 10 µM; for % Enzyme Inhibitory Activity: 10 µM; for inhibition at 10 µM: read-out: % Enzyme Inhibitory Activity
T1 construct: purchased Reaction Biology Corp. (Kinase HotSpot service)
Method: The in vitro CDK2 kinase inhibition assay was carried out by Reaction Biology Corp. (Reaction Biology Corp., Chester, PA, USA) Kinase HotSpotSM service (http://www.reactionbiology.com).
5. CDK2 kinase inhibitory activity
Reaction Biology Corp. Kinase HotSpotSM service
(http://www.reactionbiology.com) was used for screening of tested compounds. CDK2 Kinase inhibitory activity was assessed by the HotSpot assay platform, which contained specific kinase/substrate pairs along with required cofactors. Base reaction buffer:
0.1 mM Na3VO4, 2 mM DTT, 1% DMSO. Testing compounds were dissolved in 100% DMSO to specific concentration. The serial dilution was conducted by Integra Viaflo Assist in DMSO. The reaction mixture containing the examined compound and 33P-ATP was incubated at room temperature for 2 h and radioactivity was detected by filter-binding method. Kinase activity data were expressed as the percent remaining kinase activity in test samples compared to vehicle (dimethyl sulfoxide) reactions.

Compound | IC50 (MCF-7 cells; Homo sapiens, MCF7, 48 h) [µM] | IC50 (MDA-MB-231 cells; Homo sapiens, MDA-MB-231, 48 h) [µM] | melting point [°C] | % Enzyme Inhibitory Activity (CDK2) [%] | inhibition at 10 µM (CDK2) [%] | IC50 (MCF-7 cells) [µM] | Selectivity Index MCF-10A/MCF-7 (MCF-10A cells) | IC50 (MCF-10A cells) [µM] | IC50 (MDA-MB-231 cells) [µM] | potency relative to Staurosporine, MCF-7 (MCF-7 cells) [times] | potency relative to Staurosporine, MDA-MB-231 (MDA-MB-231 cells) [times] | potency relative to non-brominated counterpart (9g vs 9d, 9h vs 9e), MDA-MB-231 (MDA-MB-231 cells) [times]
Cc1cc(C)c2c(c1)C(=NNC(=O)Cc1c[nH]c3ccccc13)C(=O)N2 [Compound 7f, N′-(5,7-Dimethyl-2-oxoindolin-3-ylidene)-2-(1H-indol-3-yl)acetohydrazide] | > 100 | 77.3 ± 6.21 | 294 to 296 |  |  | > 100 |  |  |  |  |  | 
O=C(Cc1c[nH]c2ccccc12)NN=C1C(=O)Nc2ccc(Cl)cc21 [Compound 7b, N′-(5-Chloro-2-oxoindolin-3-ylidene)-2-(1H-indol-3-yl)acetohydrazide] | 8.87 ± 0.43 | 2.88 ± 0.08 | 292 to 294 | 41 | 44 |  | 4.5 | 39.5 |  |  |  | 
O=C(Cc1c[nH]c2ccccc12)NN=C1CCCc2ccccc21 [Compound 11, N′-(3,4-Dihydronaphthalen-1(2H)-ylidene)-2-(1H-indol-3-yl)acetohydrazide] | 84.7 ± 4.02 | > 100 | 244 to 245 |  |  |  |  |  | > 100 |  |  | 
N′-(1-(sec-Butyl)-2-oxoindolin-3-ylidene)-2-(1H-indol-3-yl)acetohydrazide [Compound 9c] |  |  |  |  |  | 47.1 ± 3.65 |  |  | > 100 |  |  | 
O=C(Cc1c[nH]c2ccccc12)NN=C1C(=O)Nc2ccc(F)cc21 [Compound 7a, N′-(5-Fluoro-2-oxoindolin-3-ylidene)-2-(1H-indol-3-yl)acetohydrazide] | 1.53 ± 0.02 | 9.04 ± 0.32 | 281 to 283 | 41 | 44 |  | 9.2 | 14.1 |  | 4.45 |  | 
O=C(Cc1c[nH]c2ccccc12)NN=C1C(=O)Nc2ccc(Br)cc21 [Compound 7c, N′-(5-Bromo-2-oxoindolin-3-ylidene)-2-(1H-indol-3-yl)acetohydrazide] | 36.2 ± 2.78 | 36.6 ± 1.81 | > 300 |  |  |  |  |  |  |  |  | 
Cc1ccc2c(c1)C(=NNC(=O)Cc1c[nH]c3ccccc13)C(=O)N2 [Compound 7d, 2-(1H-Indol-3-yl)-N′-(5-methyl-2-oxoindolin-3-ylidene)acetohydrazide] | 11 ± 0.81 | 0.34 ± 0.02 | > 300 |  | 58 |  | 5.0 | 54.9 |  |  | 30.3 | 
CN[C@@H]1C[C@H]2O[C@@](C)([C@@H]1OC)n1c3ccccc3c3c4c(c5c6ccccc6n2c5c31)C(=O)NC4 [Staurosporine, reference compound] | 6.81 ± 0.22 |  |  |  |  |  |  |  |  |  |  | 

Continued, in another order:

IC50 (MCF-7 cells; Homo sapiens, MCF7, 48 h) [µM] | IC50 (MDA-MB-231 cells; Homo sapiens, MDA-MB-231, 48 h) [µM] | melting point [°C] | % Enzyme Inhibitory Activity (CDK2) [%] | inhibition at 10 µM (CDK2) [%] | Compound | IC50 (MCF-7 cells) [µM] | Selectivity Index MCF-10A/MCF-7 (MCF-10A cells) | IC50 (MCF-10A cells) [µM] | IC50 (MDA-MB-231 cells) [µM] | potency relative to Staurosporine, MCF-7 (MCF-7 cells) [times] | potency relative to Staurosporine, MDA-MB-231 (MDA-MB-231 cells) [times] | potency relative to non-brominated counterpart (9g vs 9d, 9h vs 9e), MDA-MB-231 (MDA-MB-231 cells) [times]
1.51 ± 0.03 | 4.14 ± 0.19 | 223 to 225 |  |  | O=C(Cc1c[nH]c2ccccc12)NN=C1C(=O)N(Cc2ccccc2)c2ccccc21 [Compound 9d, N′-(1-Benzyl-2-oxoindolin-3-ylidene)-2-(1H-indol-3-yl)acetohydrazide] |  | 12.7 | 19.1 |  | 4.5 | 2.5 | 
28.2 ± 1.53 | 51.3 ± 3.59 | 207 to 208 |  |  | CCCN1C(=O)C(=NNC(=O)Cc2c[nH]c3ccccc23)c2ccccc21 [Compound 9b, 2-(1H-Indol-3-yl)-N′-(2-oxo-1-propylindolin-3-ylidene)acetohydrazide] |  |  |  |  |  |  | 
2.76 ± 0.14 | 2.85 ± 0.07 | 210 to 211 |  |  | O=C(Cc1c[nH]c2ccccc12)NN=C1C(=O)N(Cc2ccccc2)c2ccc(Br)cc21 [Compound 9g, N′-(1-Benzyl-5-bromo-2-oxoindolin-3-ylidene)-2-(1H-indol-3-yl)acetohydrazide] |  | 6.2 | 17.2 |  |  |  | 1.5
8.72 ± 0.39 | 25.4 ± 1.56 | 233 to 234 |  |  | N#Cc1ccc(CN2C(=O)C(=NNC(=O)Cc3c[nH]c4ccccc34)c3ccccc32)cc1 [Compound 9f, N′-(1-(4-Cyanobenzyl)-2-oxoindolin-3-ylidene)-2-(1H-indol-3-yl)acetohydrazide] |  | 4.8 | 42 |  |  |  | 
10.4 ± 0.81 | 17.7 ± 0.55 | 227 to 229 |  |  | O=C(Cc1c[nH]c2ccccc12)NN=C1C(=O)N(Cc2ccc(F)cc2)c2ccccc21 [Compound 9e, N′-(1-(4-Fluorobenzyl)-2-oxoindolin-3-ylidene)-2-(1H-indol-3-yl)acetohydrazide] |  | 4.7 | 48.4 |  |  |  | 
20.89 ± 0.04 | 2.29 ± 0.09 | 183 to 185 |  |  | O=C(Cc1c[nH]c2ccccc12)NN=C1C(=O)N(Cc2ccc(F)cc2)c2ccc(Br)cc21 [Compound 9h, N′-(5-Bromo-1-(4-fluorobenzyl)-2-oxoindolin-3-ylidene)-2-(1H-indol-3-yl)acetohydrazide] |  | 1.2 | 26.1 |  |  |  | 7.7
